Data reported in ChEMBL document CHEMBL3399970, “Synthesis of novel pleuromutilin derivatives. Part 1: preliminary studies of antituberculosis activity” (2015).
In brackets after ≈: the same amount, converted by molar mass.

Tests used:
[1] = system: Mycobacterium tuberculosis; assay: Antimycobacterial activity against Mycobacterium tuberculosis H37Rv assessed as inhibition at 20 uM; assay type: functional
[2] = system: Mycobacterium tuberculosis; assay: Antimycobacterial activity against Mycobacterium tuberculosis H37Rv assessed as complete inhibition of proliferation; assay type: functional

C=C[C@]1(C)C[C@@H](OC(=O)CN(CC)Cc2ccccc2)[C@]2(C)[C@H](C)CC[C@]3(CCC(=O)[C@H]32)[C@@H](C)[C@@H]1O
inhibition at 20 µM [1]: 100%

C=C[C@]1(C)C[C@@H](OC(=O)CN(CC)Cc2cccc(Cl)c2)[C@]2(C)[C@H](C)CC[C@]3(CCC(=O)[C@H]32)[C@@H](C)[C@@H]1O
inhibition at 20 µM [1]: 99%

C=C[C@]1(C)C[C@@H](OC(=O)CN(CC)Cc2cccc(C)c2)[C@]2(C)[C@H](C)CC[C@]3(CCC(=O)[C@H]32)[C@@H](C)[C@@H]1O
inhibition at 20 µM [1]: 16%

C=C[C@]1(C)C[C@@H](OC(=O)CN(CC)Cc2ccc(N(CC)CC)cc2)[C@]2(C)[C@H](C)CC[C@]3(CCC(=O)[C@H]32)[C@@H](C)[C@@H]1O
MIC [2]: 7.2 µM (≈ 4.08 µg/mL) | inhibition at 20 µM [1]: 99%

C=C[C@]1(C)C[C@@H](OC(=O)CN(CC)Cc2ccc(Oc3ccccc3)cc2)[C@]2(C)[C@H](C)CC[C@]3(CCC(=O)[C@H]32)[C@@H](C)[C@@H]1O
inhibition at 20 µM [1]: 100%

C=C[C@]1(C)C[C@@H](OC(=O)CN(Cc2ccccc2)Cc2ccc(Oc3ccccc3)cc2)[C@]2(C)[C@H](C)CC[C@]3(CCC(=O)[C@H]32)[C@@H](C)[C@@H]1O
inhibition at 20 µM [1]: 101%

C=C[C@]1(C)C[C@@H](OC(=O)CN(Cc2ccc(Oc3ccccc3)cc2)C2CCCCC2)[C@]2(C)[C@H](C)CC[C@]3(CCC(=O)[C@H]32)[C@@H](C)[C@@H]1O
inhibition at 20 µM [1]: 88%

C=C[C@]1(C)C[C@@H](OC(=O)CN(N2CCCCC2)S(=O)(=O)c2ccc(N)cc2)[C@]2(C)[C@H](C)CC[C@]3(CCC(=O)[C@H]32)[C@@H](C)[C@@H]1O
inhibition at 20 µM [1]: 60%
